# Results: patent US20260000698A1 (priority 2022, published 2026)
# Marks after values point to notes of the source that are not given here.
# Experiments:
# [1] = molecular target: SARS-CoV-2 Nsp14 MTase (Severe acute respiratory syndrome coronavirus 2, UniProt P0DTD1); test: biochemical; type: biochemical
# [2] = molecular target: T1, DNMT1 (Homo sapiens, UniProt P26358); test: Human MTase screening: DNMT1; type: biochemical
# T1 construct: purchased BPS Bioscience
# Description: (§1) Assay conditions. The human methyltransferase inhibition assays were performed at BPS Bioscience (San Diego, CA, USA). All of the enzymatic reactions were conducted in duplicate at room temperature for 60-960 min in a 50 μL mixture containing proper methyltransferase assay buffer, S-adenosylmethionine (SAM), enzyme, and the test compound. These 50 μL reactions were carried out in wells of a substrate pre-coated plate. First, enzyme and inhibitor were added to assay wells and preincubated for 30 min at room temperature, then SAM was added to start the reaction. Final DMSO concentration was 1% in all reactions.
# (§2) After enzymatic reactions, the reaction mixtures were discarded and each of the wells was washed three times with TBST buffer, and slowly shaken with Blocking Buffer for 10 min. Wells were emptied, and 100 μL of diluted primary antibody was added. The plate was then slowly shaken for 60 minutes at room temperature. […] Immediately, the luminescence of the samples was measured in a BioTek Synergy™ 2 (Winooski, VT, USA) microplate reader using Gen5 software.
# (§3) Data analysis. […] The luminescence data/alpha counts were analyzed and compared. […] The percent activity in the presence of each compound was calculated according to the following equation: % activity=(C−C0)/(Ce−C0), where C=the luminescence/alpha counts in the presence of the compound.
# [3] = Liver S9 stability assay, human liver S9; details: n = 2, mean±SD
# [4] = molecular target: T2, G9a (Homo sapiens, UniProt Q96KQ7); test: Human MTase screening: G9a; type: biochemical
# T2 construct: purchased BPS Bioscience
# T2 sequence (Q96KQ7 1-1210): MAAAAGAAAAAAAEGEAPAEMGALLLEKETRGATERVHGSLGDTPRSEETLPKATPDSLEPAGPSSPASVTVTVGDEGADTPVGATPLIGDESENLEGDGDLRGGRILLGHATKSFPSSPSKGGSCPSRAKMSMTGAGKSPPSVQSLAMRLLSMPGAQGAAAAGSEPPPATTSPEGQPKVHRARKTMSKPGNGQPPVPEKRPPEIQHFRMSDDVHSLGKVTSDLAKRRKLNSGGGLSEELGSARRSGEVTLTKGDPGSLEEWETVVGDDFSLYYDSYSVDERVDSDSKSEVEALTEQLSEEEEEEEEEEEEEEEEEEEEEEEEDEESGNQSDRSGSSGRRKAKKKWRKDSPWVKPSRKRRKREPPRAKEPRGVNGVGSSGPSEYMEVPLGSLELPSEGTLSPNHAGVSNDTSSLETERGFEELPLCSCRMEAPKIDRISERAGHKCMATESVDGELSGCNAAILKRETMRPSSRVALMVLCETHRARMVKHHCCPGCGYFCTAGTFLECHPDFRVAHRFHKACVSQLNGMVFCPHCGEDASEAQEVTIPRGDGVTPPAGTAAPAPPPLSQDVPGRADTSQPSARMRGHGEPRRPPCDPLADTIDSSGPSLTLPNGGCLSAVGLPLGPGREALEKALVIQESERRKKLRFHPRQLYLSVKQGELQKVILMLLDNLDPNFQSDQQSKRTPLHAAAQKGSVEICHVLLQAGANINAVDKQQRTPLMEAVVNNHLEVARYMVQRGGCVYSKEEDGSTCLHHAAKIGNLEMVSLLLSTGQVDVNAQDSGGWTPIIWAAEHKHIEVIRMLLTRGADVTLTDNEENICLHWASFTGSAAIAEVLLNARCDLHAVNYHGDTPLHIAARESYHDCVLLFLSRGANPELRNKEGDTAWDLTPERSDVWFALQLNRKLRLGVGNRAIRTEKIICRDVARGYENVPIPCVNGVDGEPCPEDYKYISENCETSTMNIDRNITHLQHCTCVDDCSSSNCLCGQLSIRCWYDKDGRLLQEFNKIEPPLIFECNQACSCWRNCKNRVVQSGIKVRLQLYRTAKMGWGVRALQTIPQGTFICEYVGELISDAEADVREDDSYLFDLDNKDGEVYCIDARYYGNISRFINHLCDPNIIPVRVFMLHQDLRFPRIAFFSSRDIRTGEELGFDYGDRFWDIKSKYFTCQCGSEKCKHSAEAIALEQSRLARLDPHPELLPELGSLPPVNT
# Description: as §1, §2, §3
# [5] = Liver S9 stability assay, mouse liver S9; details: n = 2, mean±SD
# [6] = system: A549/ACE2/TMPRSS2 cells; test: in vitro; details: cell viability at 50 μM
# T1 sequence (P26358 whole entry): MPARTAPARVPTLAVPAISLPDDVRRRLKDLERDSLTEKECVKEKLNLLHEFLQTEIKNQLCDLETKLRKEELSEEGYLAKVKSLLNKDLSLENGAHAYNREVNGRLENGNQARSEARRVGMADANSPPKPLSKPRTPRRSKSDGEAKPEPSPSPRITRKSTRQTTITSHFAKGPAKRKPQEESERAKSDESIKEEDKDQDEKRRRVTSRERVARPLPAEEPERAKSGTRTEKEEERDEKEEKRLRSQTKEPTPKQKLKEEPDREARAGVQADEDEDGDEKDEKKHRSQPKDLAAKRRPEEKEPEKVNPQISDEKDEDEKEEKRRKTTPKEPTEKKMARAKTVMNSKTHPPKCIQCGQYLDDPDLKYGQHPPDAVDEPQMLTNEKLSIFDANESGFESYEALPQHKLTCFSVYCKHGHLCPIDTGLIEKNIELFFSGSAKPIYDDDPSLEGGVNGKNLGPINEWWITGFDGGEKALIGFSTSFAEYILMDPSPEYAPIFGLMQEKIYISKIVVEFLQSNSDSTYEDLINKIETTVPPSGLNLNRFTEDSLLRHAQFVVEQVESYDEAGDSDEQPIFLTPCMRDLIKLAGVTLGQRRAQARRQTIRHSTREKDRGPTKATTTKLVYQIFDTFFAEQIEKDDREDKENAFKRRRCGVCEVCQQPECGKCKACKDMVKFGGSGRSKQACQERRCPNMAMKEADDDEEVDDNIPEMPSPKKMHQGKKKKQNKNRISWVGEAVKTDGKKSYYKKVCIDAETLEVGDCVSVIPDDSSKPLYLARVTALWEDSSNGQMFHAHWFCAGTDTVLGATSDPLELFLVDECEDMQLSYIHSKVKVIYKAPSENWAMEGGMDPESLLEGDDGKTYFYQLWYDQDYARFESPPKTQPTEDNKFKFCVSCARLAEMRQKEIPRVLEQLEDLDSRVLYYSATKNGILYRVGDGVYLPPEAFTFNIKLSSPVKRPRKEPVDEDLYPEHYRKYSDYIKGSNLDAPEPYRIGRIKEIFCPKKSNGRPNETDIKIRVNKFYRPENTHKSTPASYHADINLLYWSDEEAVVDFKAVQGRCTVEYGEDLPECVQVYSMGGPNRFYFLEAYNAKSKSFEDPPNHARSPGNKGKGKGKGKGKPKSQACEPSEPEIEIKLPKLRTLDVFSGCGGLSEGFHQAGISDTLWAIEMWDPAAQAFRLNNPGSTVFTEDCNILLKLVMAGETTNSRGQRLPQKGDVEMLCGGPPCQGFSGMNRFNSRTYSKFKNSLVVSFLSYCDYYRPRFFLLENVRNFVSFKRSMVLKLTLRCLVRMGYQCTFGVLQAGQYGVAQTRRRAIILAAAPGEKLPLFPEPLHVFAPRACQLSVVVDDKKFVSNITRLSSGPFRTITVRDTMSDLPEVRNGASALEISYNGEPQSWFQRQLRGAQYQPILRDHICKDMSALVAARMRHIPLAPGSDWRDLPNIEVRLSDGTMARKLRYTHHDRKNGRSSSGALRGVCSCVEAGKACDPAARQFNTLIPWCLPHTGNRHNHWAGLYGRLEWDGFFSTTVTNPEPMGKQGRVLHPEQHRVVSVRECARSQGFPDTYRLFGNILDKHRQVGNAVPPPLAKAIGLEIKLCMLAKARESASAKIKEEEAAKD
compound,measurement,setting,value
"Nc1ncnc2c1ncn2[C@@H]1O[C@H](CNS(=O)(=O)c2ccc3ccccc3c2)[C@@H](O)[C@H]1O [Compound 3, N-(((2R,3S,4R,5R)-5-(6-Amino-9H-purin-9-yl)-3,4-dihydroxytetrahydrofuran-2-yl)methyl)naphthalene-2-sulfonamide]",IC50,"[1]; LC-MS/MS assay, read-out: IC50",61 nM
same,fold more active than compound 1,[1]; MTase IC50 vs compound 1,> 150 fold
same,inhibition at 10 µM,[2],5%
same,"Human Liver S9 Stability t1/2, Phase I",[3]; cofactor NADPH,11.2 ± 2.27 h
same,"Human Liver S9 Stability t1/2, Phase II",[3]; cofactor UDPGA,>45^e min
same,inhibition at 10 µM,[4],11%
same,"Mouse Liver S9 Stability t1/2, Phase I",[5]; cofactor NADPH,4.55 ± 0.383 h
same,"Mouse Liver S9 Stability t1/2, Phase II",[5]; cofactor UDPGA,>45^e min
same,CC50: NT (nontoxic),[6],"NT^b (NT, nontoxic, >95% cell viability at 50 μM;)"
